System: CN0375-F725-PDC KRAS spheroid viability
Test: Anticancer human tumor CN0375-F725-PDC patient-derived colon carcinoma cell line growth inhibition [KRAS2]
Details: spheroids with HUVEC and MSC; for viability, T/C: stronger effect = lower value
Procedure, shortened: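 Combination screen of spheroid viability in tumor-cell co-cultures with endothelial (HUVEC) and mesenchymal stem cell stroma. Each agent was tested in half-log dilutions, topping at clinical Cmax or at 10 microM without a known Cmax.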

[1] = curve of first compound, second compound 0.1 µM
[2] = curve of first compound, second compound 0.316 µM
[3] = curve of first compound, second compound 1 µM
[4] = curve of first compound, second compound 3.16 µM
[5] = curve of first compound, second compound 10 µM
[6] = second compound 0.1 µM, first compound 0.0316 µM
[7] = second compound 0.1 µM, first compound 0.1 µM
[8] = second compound 0.1 µM, first compound 0.316 µM
[9] = second compound 0.1 µM, first compound 1 µM
[10] = second compound 0.316 µM, first compound 0.0316 µM
[11] = second compound 0.316 µM, first compound 0.1 µM
[12] = second compound 0.316 µM, first compound 0.316 µM
[13] = second compound 0.316 µM, first compound 1 µM
[14] = second compound 1 µM, first compound 0.0316 µM
[15] = second compound 1 µM, first compound 0.1 µM
[16] = second compound 1 µM, first compound 0.316 µM
[17] = second compound 1 µM, first compound 1 µM
[18] = second compound 3.16 µM, first compound 0.0316 µM
[19] = second compound 3.16 µM, first compound 0.1 µM
[20] = second compound 3.16 µM, first compound 0.316 µM
[21] = second compound 3.16 µM, first compound 1 µM
[22] = second compound 10 µM, first compound 0.0316 µM
[23] = second compound 10 µM, first compound 0.1 µM
[24] = second compound 10 µM, first compound 0.316 µM
[25] = second compound 10 µM, first compound 1 µM
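Note: spheroids exposed to agents for 7 days.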

For `COc1cc2nccc(Oc3ccc(NC(=O)C4(C(=O)Nc5ccc(F)cc5)CC4)cc3)c2cc1OC` + CC1OCC2(CCN(c3cnc(Sc4ccnc(N)c4Cl)c(N)n3)CC2)C1N, the IC50 [1] was greater than 10 µM, the IC50 [2] was 5.81 µM and the IC50 [3] was 2.58 µM. It also gave an IC50 [4] of 1.88 µM, an IC50 [5] of 0.644 µM and a viability, T/C [6] of 104%. The viability, T/C [7] was 94.5%, the viability, T/C [8] was 83.3% and the viability, T/C [9] was 69.3%. For the same compound, the viability, T/C (second compound 0.1 µM, first compound 3.16 µM) was 56.3%, the viability, T/C (second compound 0.1 µM, first compound 10 µM) was 63.2% and the viability, T/C [10] was 99.5%. For the same compound, the viability, T/C [11] was 94.6%, the viability, T/C [12] was 85.9% and the viability, T/C [13] was 68.4%. For the same compound, the viability, T/C (second compound 0.316 µM, first compound 3.16 µM) was 44.6%, the viability, T/C (second compound 0.316 µM, first compound 10 µM) was 53.5% and the viability, T/C [14] was 86.3%. The viability, T/C [15] was 84.7%, the viability, T/C [16] was 75.5% and the viability, T/C [17] was 67.9%. For the same compound, the viability, T/C (second compound 1 µM, first compound 3.16 µM) was 38.4%, the viability, T/C (second compound 1 µM, first compound 10 µM) was 53.9% and the viability, T/C [18] was 84.4%. The viability, T/C [19] was 78.9%, the viability, T/C [20] was 71.7% and the viability, T/C [21] was 60.7%. For the same compound, the viability, T/C (second compound 3.16 µM, first compound 3.16 µM) was 36.7%, the viability, T/C (second compound 3.16 µM, first compound 10 µM) was 46.8% and the viability, T/C [22] was 66.9%. It also gave a viability, T/C [23] of 69.3%, a viability, T/C [24] of 57.9% and a viability, T/C [25] of 46.2%. For the same compound, the viability, T/C (second compound 10 µM, first compound 3.16 µM) was 25.9% and the viability, T/C (second compound 10 µM, first compound 10 µM) was 31.2%.
Compound `CCN1CCN(Cc2ccc(Nc3ncc(F)c(-c4cc(F)c5nc(C)n(C(C)C)c5c4)n3)nc2)CC1` + CNCc1ccccc1-c1csc(C(C)Nc2nc(C)nc3cc(OC)c(OC)cc23)c1 has an IC50 [1] greater than 1 µM, an IC50 [2] greater than 1 µM and an IC50 [3] of 0.0328 µM. The IC50 [4] was less than 0.00316 µM, the IC50 [5] was less than 0.00316 µM and the viability, T/C (second compound 0.1 µM, first compound 0.00316 µM) was 102%. It also gave a viability, T/C (second compound 0.1 µM, first compound 0.01 µM) of 91.5%, a viability, T/C [6] of 92.4% and a viability, T/C [7] of 89.1%. It also gave a viability, T/C [8] of 102%, a viability, T/C [9] of 86.9% and a viability, T/C (second compound 0.316 µM, first compound 0.00316 µM) of 92.6%. The viability, T/C (second compound 0.316 µM, first compound 0.01 µM) was 88.8%, the viability, T/C [10] was 78.7% and the viability, T/C [11] was 79.1%. For the same compound, the viability, T/C [12] was 81.7%, the viability, T/C [13] was 58.9% and the viability, T/C (second compound 1 µM, first compound 0.00316 µM) was 76%. The viability, T/C (second compound 1 µM, first compound 0.01 µM) was 65.7%, the viability, T/C [14] was 40.5% and the viability, T/C [15] was 51.9%. For the same compound, the viability, T/C [16] was 9.53%, the viability, T/C [17] was 10.2% and the viability, T/C (second compound 3.16 µM, first compound 0.00316 µM) was 0.86%. The viability, T/C (second compound 3.16 µM, first compound 0.01 µM) was 0.97%, the viability, T/C [18] was 0.25% and the viability, T/C [19] was 0.28%. It also gave a viability, T/C [20] of 0.37%, a viability, T/C [21] of 0.51% and a viability, T/C (second compound 10 µM, first compound 0.00316 µM) of 0.33%. It also gave a viability, T/C (second compound 10 µM, first compound 0.01 µM) of 0.19%, a viability, T/C [22] of 0.51% and a viability, T/C [23] of 0.3%. It also gave a viability, T/C [24] of 0.17% and a viability, T/C [25] of 0.4%.
With `Cn1nccc1Nc1nccc(-c2cc3c(s2)C(C)(C)N(CCN2CCOCC2)C3=O)n1` the viability, T/C (compound 0.0316 µM) was 104% [middle of 5 runs], the viability, T/C (compound 0.1 µM) was 90% [middle of 5 runs] and the viability, T/C (compound 0.316 µM) was 77.5% [middle of 5 runs]. The viability, T/C (compound 1 µM) was 72.3% [middle of 5 runs], the viability, T/C (compound 3.16 µM) was 56.5% [middle of 5 runs] and the viability, T/C (compound 10 µM) was 44.6% [middle of 5 runs]. The IC50 (curve of compound) was 5.56 µM [middle of 5 runs].
With `O=C(c1cc(Cc2n[nH]c(=O)c3ccccc23)ccc1F)N1CCN(C(=O)C2CC2)CC1` the viability, T/C (compound 0.0316 µM) was 107% [middle of 5 runs], the viability, T/C (compound 0.1 µM) was 106% [middle of 5 runs] and the viability, T/C (compound 0.316 µM) was 102% [middle of 5 runs]. For the same compound, the viability, T/C (compound 1 µM) was 107% [middle of 5 runs], the viability, T/C (compound 3.16 µM) was 105% [middle of 5 runs] and the viability, T/C (compound 10 µM) was 96.7% [middle of 5 runs]. For the same compound, the IC50 (curve of compound) was greater than 10 µM.
